In US11759456B2, “Pharmaceutical composition” (KOWA COMPANY, LTD., priority 2017, dated 2023):

Assay: Laser Diffraction Measurement of Particle Size of primary particles
Type: physicochemical
Conditions: pemafibrate used in Test Examples; Japanese Pharmacopoeia 17th Edition laser diffraction

d50 value (average particle diameter of primary particles): ≤ 100 μm
d90 value (average particle diameter of primary particles): ≤ 200 μm
Compound: CC[C@@H](Oc1cccc(CN(CCCOc2ccc(OC)cc2)c2nc3ccccc3o2)c1)C(=O)O [pemafibrate, (2R)-2-[3-([1,3-Benzoxazol-2-yl[3-(4-methoxyphenoxy)propyl]amino]methyl)phenoxy]butanoic acid]
